Experimental data as given in ChEMBL document CHEMBL1201862, “PubChem BioAssay data set” (2004).
Calls of active or inactive are those of the source.

Experiments:
[1] = Luminescence Cell-Based Dose Retest to Confirm Inhibitors of Cancer Stem Cells. [Related pubchem assays (depositor defined):AID2717, AID2721]; format: functional; conditions: Homo sapiens
HeLa = experiment: HeLa cell cytotoxicity, dose response, cytotoxicity control for MITF activator project, CellTiter-Glo luminescence, cherry-pick samples (AID 540259); format: functional, cell-based; conditions: Homo sapiens
Escherichia coli = experiment: microbe, parasite or virus in culture
[2] = HEp-2 cell cytotoxicity, dose response, cytotoxicity control for RSV inhibitor project, HTS (AID 2410); format: functional; conditions: human respiratory syncytial virus
[3] = tested on: Streptococcus sp. 'group A'; experiment: growth inhibition of control SK(-) GAS strain, dose response, counter-screen for streptokinase expression inhibitor project, luminescence, kanamycin, BacTiterGlo, confirmation (AID 1900); format: functional, organism-based
Streptokinase A = biological target: T1, Streptokinase A (Streptococcus pyogenes serotype M1, UniProt P10520); experiment: S. pyogenes streptokinase expression inhibitors, potency, dose response, plasminogen activation absorbance, OD405 (AID 1914); format: functional, Streptococcus pyogenes M1 GAS;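 also: secreted streptokinase activity via plasminogen activation per viability signal from cell pellet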
T1 sequence (P10520 whole entry): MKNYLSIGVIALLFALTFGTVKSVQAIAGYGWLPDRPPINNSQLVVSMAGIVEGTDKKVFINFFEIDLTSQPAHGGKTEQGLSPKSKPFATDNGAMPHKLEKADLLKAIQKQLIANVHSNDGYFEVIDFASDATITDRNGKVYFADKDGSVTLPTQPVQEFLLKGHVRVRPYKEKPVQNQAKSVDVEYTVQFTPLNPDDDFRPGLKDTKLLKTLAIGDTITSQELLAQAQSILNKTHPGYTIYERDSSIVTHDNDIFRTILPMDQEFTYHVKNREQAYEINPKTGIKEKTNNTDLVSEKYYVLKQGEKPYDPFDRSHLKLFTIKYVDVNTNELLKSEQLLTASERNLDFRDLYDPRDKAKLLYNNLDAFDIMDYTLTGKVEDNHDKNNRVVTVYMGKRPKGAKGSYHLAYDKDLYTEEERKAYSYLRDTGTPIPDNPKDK

[4] = enhancers of respiration in Yfh1-depleted yeast, dose response, Friedreich's ataxia, plus single-dose screen (AID 1465); format: functional;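 also: yeast depleted of Yfh1p frataxin homolog grown on glycerol needing respiration; WST-1 tetrazolium dye reduction as measure of cellular dehydrogenase metabolic activity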
Streptococcus = experiment: Group A Streptococcus viability loss, dose response, counter-screen for streptokinase expression inhibitor project, luminescence, BacTiterGlo (AID 1915); format: functional, organism-based;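 also: potency for reduction of bacterial viability or growth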
Keap1/Nrf2 = Keap1/Nrf2 (Homo sapiens, UniProt Q14145); experiment: Keap1-Nrf2 protein-protein interaction inhibitors, dose response, biochemical, fluorescence polarization, cherry-picked samples (AID 588683)
Sequence of Keap1/Nrf2 (Q16236 whole entry): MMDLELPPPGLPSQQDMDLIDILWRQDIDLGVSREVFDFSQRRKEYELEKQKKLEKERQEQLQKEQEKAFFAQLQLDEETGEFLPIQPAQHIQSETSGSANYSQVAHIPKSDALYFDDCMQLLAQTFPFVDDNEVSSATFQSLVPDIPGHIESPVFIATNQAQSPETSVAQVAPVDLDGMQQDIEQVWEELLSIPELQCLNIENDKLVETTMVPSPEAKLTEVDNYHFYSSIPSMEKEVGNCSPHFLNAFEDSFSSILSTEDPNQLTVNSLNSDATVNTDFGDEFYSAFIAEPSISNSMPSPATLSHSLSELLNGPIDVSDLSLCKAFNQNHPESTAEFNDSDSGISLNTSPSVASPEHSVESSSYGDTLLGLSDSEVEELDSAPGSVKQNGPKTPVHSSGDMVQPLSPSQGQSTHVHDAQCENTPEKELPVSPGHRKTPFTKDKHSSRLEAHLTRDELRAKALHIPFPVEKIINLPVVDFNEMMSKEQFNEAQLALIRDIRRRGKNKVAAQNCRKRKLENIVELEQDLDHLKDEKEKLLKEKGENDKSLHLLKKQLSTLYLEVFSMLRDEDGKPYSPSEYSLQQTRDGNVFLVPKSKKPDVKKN
Sequence of Keap1/Nrf2 (Q14145 whole entry): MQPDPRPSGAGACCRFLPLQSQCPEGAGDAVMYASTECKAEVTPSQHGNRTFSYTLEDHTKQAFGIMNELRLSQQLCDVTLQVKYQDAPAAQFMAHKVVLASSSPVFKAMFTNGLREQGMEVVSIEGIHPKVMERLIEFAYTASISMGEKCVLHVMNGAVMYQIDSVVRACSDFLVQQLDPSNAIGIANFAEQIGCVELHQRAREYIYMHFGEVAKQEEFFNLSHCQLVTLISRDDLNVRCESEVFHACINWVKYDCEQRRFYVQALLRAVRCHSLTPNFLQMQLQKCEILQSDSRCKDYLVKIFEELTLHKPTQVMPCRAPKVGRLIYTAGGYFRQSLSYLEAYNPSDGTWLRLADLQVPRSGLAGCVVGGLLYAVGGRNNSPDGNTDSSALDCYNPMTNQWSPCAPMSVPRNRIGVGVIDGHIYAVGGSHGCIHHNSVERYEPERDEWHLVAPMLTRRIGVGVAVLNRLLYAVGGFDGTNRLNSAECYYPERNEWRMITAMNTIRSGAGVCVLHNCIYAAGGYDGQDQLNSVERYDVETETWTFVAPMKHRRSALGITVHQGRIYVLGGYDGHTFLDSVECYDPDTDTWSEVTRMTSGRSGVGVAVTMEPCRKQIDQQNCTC

CAAX prenyl protease 2 = biological target: T2, CAAX prenyl protease 2 (Saccharomyces cerevisiae S288c, UniProt Q03530); format: biochemical
T2 sequence (Q03530 whole entry): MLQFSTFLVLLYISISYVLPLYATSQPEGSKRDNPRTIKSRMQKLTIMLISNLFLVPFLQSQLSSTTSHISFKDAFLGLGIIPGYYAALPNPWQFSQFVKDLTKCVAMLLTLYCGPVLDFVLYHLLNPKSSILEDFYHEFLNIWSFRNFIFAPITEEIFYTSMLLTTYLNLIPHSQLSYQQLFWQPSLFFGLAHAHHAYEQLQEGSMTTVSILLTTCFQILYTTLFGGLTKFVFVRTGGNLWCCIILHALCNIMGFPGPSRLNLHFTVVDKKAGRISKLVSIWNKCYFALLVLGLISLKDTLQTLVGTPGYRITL

[5] = mammalian cell cytotoxicity, dose response, cytotoxicity control, plate reader, cherry-pick samples (AID 504397); format: functional, cell-based
[6] = biological target: T3, Intestinal-type alkaline phosphatase (Homo sapiens, UniProt P09923); experiment: Dose Response confirmation of uHTS hits from a small molecule inhibitors of human intestinal alkaline phosphatase via a luminescent assay. [Related pubchem assays (depositor defined):AID2544, AID2574]; format: functional
T3 sequence (P09923 whole entry): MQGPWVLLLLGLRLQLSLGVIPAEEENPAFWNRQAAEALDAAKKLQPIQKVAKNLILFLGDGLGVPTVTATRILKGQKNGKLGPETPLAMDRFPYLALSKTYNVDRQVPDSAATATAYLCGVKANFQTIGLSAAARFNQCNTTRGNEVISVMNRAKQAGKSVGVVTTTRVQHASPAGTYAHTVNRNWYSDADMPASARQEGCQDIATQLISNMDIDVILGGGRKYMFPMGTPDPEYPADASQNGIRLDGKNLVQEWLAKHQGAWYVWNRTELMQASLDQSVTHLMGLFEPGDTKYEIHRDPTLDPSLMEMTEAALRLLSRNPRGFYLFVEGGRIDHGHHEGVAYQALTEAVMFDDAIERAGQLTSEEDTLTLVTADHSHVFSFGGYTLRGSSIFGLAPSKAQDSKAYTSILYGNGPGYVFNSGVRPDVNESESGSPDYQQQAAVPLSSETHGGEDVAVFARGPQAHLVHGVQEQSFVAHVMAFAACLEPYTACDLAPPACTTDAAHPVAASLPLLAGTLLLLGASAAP

[7] = biological target: T3, Intestinal-type alkaline phosphatase; experiment: human intestinal alkaline phosphatase activators, dose response, biochemical, luminescence, uHTS hits (AID 463120); format: functional
[8] = biological target: T4, Oxysterols receptor LXR-beta (Homo sapiens, UniProt P55055); format: functional, cell-based;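 also: Cell-based luminescence dose-response assay of agonist activity at LXR, run as a confirmatory counterscreen to a daf-12 agonist screen; HEK293 cells with Gal4-LXR fusion and GAL4-driven luciferase reporter; agonist potency from rising luciferase signal of a Gal4-LXR reporter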
T4 sequence (P55055 whole entry): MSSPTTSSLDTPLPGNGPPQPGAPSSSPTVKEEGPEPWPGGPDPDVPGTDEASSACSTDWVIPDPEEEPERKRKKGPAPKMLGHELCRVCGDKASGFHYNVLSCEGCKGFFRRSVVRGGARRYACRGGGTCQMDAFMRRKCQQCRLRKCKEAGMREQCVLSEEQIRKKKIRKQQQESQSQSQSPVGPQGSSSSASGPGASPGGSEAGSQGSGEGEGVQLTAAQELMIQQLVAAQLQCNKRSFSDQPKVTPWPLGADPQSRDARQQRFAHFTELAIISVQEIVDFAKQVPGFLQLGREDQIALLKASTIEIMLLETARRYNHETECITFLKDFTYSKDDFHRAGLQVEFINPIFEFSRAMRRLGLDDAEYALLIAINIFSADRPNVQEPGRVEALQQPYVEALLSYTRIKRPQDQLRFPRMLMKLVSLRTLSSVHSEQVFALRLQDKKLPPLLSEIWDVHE

CC(C)c1ccc(NC(=O)c2snc3ccc(Cl)cc23)cc1
AC50 [1]: 3.02 µM (active)
AC50 (HeLa): 52.8 µM (active)
AC50 (Escherichia coli): 23.1 µM (active)

O=C1CCCc2oc3c(cc(NS(=O)(=O)c4ccc5c6c(cccc46)C(=O)N5)c4ccccc43)c21
CC50 [2]: 25.1 µM (active)
EC50 [3]: 3.82 µM (active)
EC50 (Streptokinase A): > 150 µM (not active)
EC50 [4]: > 100 µM (active)
EC50 (Streptococcus): > 150 µM (not active)
AC50 (Keap1/Nrf2): 51.2 µM (active)

CCN(CC)CCN(C(=O)c1ccc2ccccc2c1)c1nc2ccc(F)cc2s1
AC50 (CAAX prenyl protease 2): 6.18 µM (active)
AC50 [5]: 181 µM (active)

NC(=O)c1c(NC(=O)c2ccc(F)cc2)sc2c1CCC2
IC50 [6]: > 100 µM (inactive)
EC50 [7]: > 100 µM (inactive)
EC50 [8]: > 67.5 µM (inactive)
EC50 (cells): > 67.5 µM (inactive)

Brc1csc(/C=N/Nc2nc3ccccc3s2)c1
AC50 (HeLa): 46 µM (active)
